The supplement of paper PMC6045584
± gives the standard deviation of the averaged measurements.

Tests used:
TEMOZOLOMIDE = compound: Cn1nnc2c(C(N)=O)ncn2c1=O [TEMOZOLOMIDE]; assay: surviving fraction relative to DMSO-only wells; higher = less growth inhibition; details: exposure time: 5 days
Method in brief: (§1)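 Log-phase tumour cell lines were seeded at 250–500 cells per well in 384-well plates. After 24 hours they were exposed continuously for five days to inhibitors at 0.5, 1, 5, 10, 50, 100, 500 and 1000 nM. Viability was read by CellTiter-Glo luminescence after 10 minutes at room temperature, and surviving fraction is luminescence normalised to the median of DMSO-only wells. Each line was screened three times and kept only if replicate Pearson r >0.7 and median Z' >0.3.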

SORAFENIB = compound: CNC(=O)c1cc(Oc2ccc(NC(=O)Nc3ccc(Cl)c(C(F)(F)F)c3)cc2)ccn1 [SORAFENIB]; assay: as above; details: exposure time: 5 days
Method in brief: as §1

Test System | surviving fraction (TEMOZOLOMIDE; 0.5 nM) | surviving fraction (TEMOZOLOMIDE; 1 nM) | surviving fraction (TEMOZOLOMIDE; 5 nM) | surviving fraction (TEMOZOLOMIDE; 10 nM) | surviving fraction (TEMOZOLOMIDE; 50 nM) | surviving fraction (TEMOZOLOMIDE; 100 nM) | surviving fraction (TEMOZOLOMIDE; 500 nM) | surviving fraction (TEMOZOLOMIDE; 1000 nM) | surviving fraction (SORAFENIB; 0.5 nM) | surviving fraction (SORAFENIB; 1 nM) | surviving fraction (SORAFENIB; 5 nM) | surviving fraction (SORAFENIB; 10 nM) | surviving fraction (SORAFENIB; 50 nM) | surviving fraction (SORAFENIB; 100 nM) | surviving fraction (SORAFENIB; 500 nM) | surviving fraction (SORAFENIB; 1000 nM)
SG31 HEADNECK | 0.991 ± 0.11 | 1.07 ± 0.18 | 1.01 ± 0.15 | 1.04 ± 0.013 | 0.922 ± 0.062 | 1.17 ± 0.52 | 1.17 ± 0.24 | 1.12 ± 0.12 | 1.03 ± 0.11 | 1.1 ± 0.11 | 1.09 ± 0.092 | 1.08 ± 0.15 | 1.2 ± 0.31 | 1.07 ± 0.092 | 1.4 ± 0.22 | 1.22 ± 0.13
HCC78 LUNG | 0.804 ± 0.046 | 0.791 ± 0.14 | 0.941 ± 0.062 | 1.02 ± 0.069 | 0.984 ± 0.11 | 0.916 ± 0.14 | 0.907 ± 0.058 | 0.785 ± 0.18 | 0.864 ± 0.17 | 0.826 ± 0.023 |  | 0.877 ± 0.085 | 1.02 ± 0.053 |  | 0.509 ± 0.068 | 0.435 ± 0.098
HOS BONE | 0.994 ± 0.018 | 1.038 ± 0.0071 | 1.028 ± 0.0056 | 1.05 ± 0.042 | 1.04 ± 0.012 | 1.04 ± 0.012 | 1.04 ± 0.016 | 1.058 ± 0.0076 | 1.03 ± 0.043 | 1.015 ± 0.0025 | 1.025 ± 0.0095 | 1.03 ± 0.018 | 1.09 ± 0.014 |  |  | 
SJSA1 BONE | 0.368 ± 0.017 | 1.72 ± 0.054 | 1.64 ± 0.088 | 1.5 ± 0.13 | 1.69 ± 0.041 | 1.64 ± 0.077 | 1.66 ± 0.084 | 1.7 ± 0.11 | 1.02 ± 0.012 | 0.969 ± 0.036 | 0.985 ± 0.048 |  | 1.07 ± 0.041 | 1.03 ± 0.041 | 1 ± 0.11 | 0.967 ± 0.026
HCC1395 BREAST | 1.03 ± 0.034 | 1.1 ± 0.081 | 1.1 ± 0.11 | 1.02 ± 0.078 | 1.04 ± 0.044 | 1.01 ± 0.14 | 0.922 ± 0.14 | 1.06 ± 0.03 | 1.11 ± 0.057 |  | 1.27 ± 0.049 | 1.16 ± 0.17 | 1.26 ± 0.034 | 1.24 ± 0.15 | 1.18 ± 0.21 | 1.12 ± 0.048
CAL51 BREAST | 0.973 ± 0.038 | 1.05 ± 0.037 | 0.993 ± 0.02 | 1.07 ± 0.048 | 1.05 ± 0.057 | 1.06 ± 0.048 | 1.04 ± 0.032 | 1.02 ± 0.037 | 0.979 ± 0.04 | 0.991 ± 0.014 | 0.9937 ± 0.0025 | 1.01 ± 0.022 | 1.12 ± 0.046 | 1.1 ± 0.05 | 1.02 ± 0.034 | 0.977 ± 0.041
MDAMB157 BREAST | 1.02 ± 0.067 | 0.986 ± 0.046 | 0.968 ± 0.09 | 1.1 ± 0.074 | 0.953 ± 0.06 | 1.11 ± 0.028 | 0.927 ± 0.055 | 0.954 ± 0.1 | 0.962 ± 0.016 | 0.909 ± 0.064 | 0.984 ± 0.03 | 0.923 ± 0.046 |  | 1.01 ± 0.059 | 0.963 ± 0.036 | 
SG43 HEADNECK | 1.11 ± 0.065 | 0.96 ± 0.1 | 0.768 ± 0.047 | 0.882 ± 0.087 | 0.742 ± 0.18 | 0.895 ± 0.24 | 0.895 ± 0.11 | 1.14 ± 0.46 | 0.959 ± 0.085 | 1.19 ± 0.13 |  | 0.97 ± 0.082 | 1.18 ± 0.14 | 1.4 ± 0.095 | 1.98 ± 0.15 | 2.18 ± 0.21
MDAMB231 BREAST | 0.9454 ± 0.0069 | 0.992 ± 0.024 | 0.9815 ± 0.008 | 1.01 ± 0.016 | 0.986 ± 0.013 | 0.998 ± 0.023 | 0.975 ± 0.015 | 0.985 ± 0.025 | 0.99 ± 0.025 | 0.995 ± 0.014 | 0.924 ± 0.036 | 0.905 ± 0.014 | 0.887 ± 0.014 | 0.936 ± 0.05 |  | 0.929 ± 0.016
CAL72 BONE | 1.04 ± 0.056 | 0.996 ± 0.098 | 1.04 ± 0.083 | 1.02 ± 0.081 | 1.1 ± 0.05 | 1.09 ± 0.087 | 1.076 ± 0.0011 | 1.07 ± 0.094 | 1.06 ± 0.031 |  | 1.09 ± 0.026 | 1.05 ± 0.048 | 1.13 ± 0.039 | 1.121 ± 0.0063 | 1.09 ± 0.041 | 1.08 ± 0.042
VP229 BREAST | 1.18 ± 0.11 | 1.18 ± 0.15 | 1.07 ± 0.17 | 1.23 ± 0.06 | 1.12 ± 0.073 | 1.26 ± 0.21 | 1.15 ± 0.15 | 1.15 ± 0.16 | 0.934 ± 0.11 | 0.939 ± 0.05 | 1.06 ± 0.11 | 1 ± 0.11 | 1.21 ± 0.088 | 1.12 ± 0.17 | 1.31 ± 0.13 | 1.3 ± 0.028
CASKI CERVIX | 0.888 ± 0.013 | 0.88 ± 0.049 | 0.965 ± 0.044 | 1.01 ± 0.12 | 1 ± 0.023 | 1.04 ± 0.05 | 0.929 ± 0.072 | 1 ± 0.074 | 0.895 ± 0.04 | 0.94 ± 0.054 | 0.983 ± 0.044 | 0.969 ± 0.019 | 1.13 ± 0.077 | 1.13 ± 0.075 | 1.05 ± 0.019 | 0.865 ± 0.045
BT549 BREAST | 1.1 ± 0.12 | 1.08 ± 0.085 | 1.05 ± 0.1 | 1.12 ± 0.13 | 1.09 ± 0.043 | 1.26 ± 0.1 | 1.09 ± 0.07 | 1.19 ± 0.14 | 1.2 ± 0.1 | 1.11 ± 0.17 | 1.037 ± 0.01 | 1.15 ± 0.068 | 1.07 ± 0.081 |  | 1.09 ± 0.11 | 1.11 ± 0.16
MHM BONE | 0.9827 ± 0.0021 | 0.975 ± 0.007 | 1.01 ± 0.043 | 1.04 ± 0.014 | 0.998 ± 0.042 | 1.03 ± 0.029 | 0.973 ± 0.032 | 0.998 ± 0.0056 | 0.977 ± 0.025 | 1.01 ± 0.024 |  | 1.06 ± 0.051 | 1.071 ± 0.0061 | 1.08 ± 0.024 | 1.1 ± 0.034 | 
DU4475 BREAST | 0.877 ± 0.091 | 0.998 ± 0.053 | 0.973 ± 0.19 | 0.878 ± 0.093 | 0.851 ± 0.08 | 1.01 ± 0.2 | 0.972 ± 0.24 | 0.989 ± 0.067 | 1.07 ± 0.35 | 1.05 ± 0.2 | 0.927 ± 0.29 | 0.999 ± 0.18 | 0.819 ± 0.25 | 0.939 ± 0.46 | 0.906 ± 0.31 | 0.769 ± 0.32
MDAMB468 BREAST | 0.983 ± 0.086 | 1.13 ± 0.045 | 1.114 ± 0.0027 | 1.17 ± 0.075 | 1.09 ± 0.07 | 1.15 ± 0.045 | 1.03 ± 0.1 | 1.12 ± 0.091 | 1 ± 0.083 |  | 1.15 ± 0.062 | 1.09 ± 0.072 | 1.28 ± 0.073 | 1.26 ± 0.12 | 1.23 ± 0.029 | 1.21 ± 0.051
LNCAP PROSTATE | 0.966 ± 0.088 | 0.915 ± 0.073 | 0.985 ± 0.17 | 0.8907 ± 0.0074 | 0.93 ± 0.034 | 0.963 ± 0.092 | 0.897 ± 0.037 | 0.924 ± 0.083 | 1.01 ± 0.084 |  | 1 ± 0.082 | 1.06 ± 0.08 | 0.902 ± 0.23 |  | 0.887 ± 0.12 | 0.853 ± 0.17
